The subject of one experiment is tissue pieces in vitro. The following applies: Jahn et al Eur. J. Biochem 126: 623, 1982; cited from earlier work.
In the next experiment the test system is rabbits with dry eyes. Put plainly: Tear film osmolality after topical drops in dry eye rabbits. The conditions noted are these: dry eye rabbit, topical 10 μl drops, 10^-5 M, 10^-4 M and 10^-3 M in buffer, FIGS. 2 to 4; for tear film osmolality compared with buffer alone: tear samples at 6 and 16 minutes. The format is in vivo. The procedure: In vivo examples in accordance with the invention were conducted on rabbits with dry eyes. The dry eye disorder is created by surgically closing the duct that carries fluid from the main lacrimal gland to the tear film and surgically removing the nictitans and harderian glands. This leaves intact only the accessory glands that lie on the surface of the eye. These rabbits develop increased tear film osmolality soon after the operation, a finding that is understood to be due to decreased tear production, and that is characteristic of dry eye. It is recognized that results of opthalmologic tests using rabbits has close correlation with humans and therefore the results carry over to humans
The effect on tear film osmolality of topically applied isotonic buffer solution with and without melanocyte stimulating hormones which activate the melanotropin receptors was studied in the dry eye rabbit. All test drops were ten microliters (μl) in volume. Tear samples were taken with a micropipette system, in the manner described in the article entitled "Osmolarity of Tear Microvolumes in Keratoconjunctivitis Sicca", by Gilbard et al, Arch Ophthalmol 96:677, 1978. Osmolarity was measured by freezing-point depression.
The following protocol was used to test the effects of the topically applied melanotropins. At zero time a tear sample was taken for measurement of osmolality. At one minute the test drop was instilled. At six and at sixteen minutes, tear samples were taken for osmolality measurements. Five minutes after the sixteen minute sample, the above sequence was repeated several times to test additional drops.
The following drops were instilled in the test eye and after each such instillation, test samples were taken as stated: (1) buffer solution, (2) buffer solution containing a melanocyte stimulating hormone at a low dose, (3) buffer solution, (4) buffer solution containing a melanocyte stimulating hormone at a moderate dose, (5) buffer solution, (6) buffer solution containing a melanocyte stimulating hormone at a higher dose. The melanocyte stimulating hormone may be obtained from Peninsula Laboratories,Inc., Belmont California. The results are shown in FIGS. 1 through 4 A, B, and C, where FIGS. 1 through 4 each represent results obtained from the same rabbit.

The test system of another experiment is lacrimal gland. The conditions noted are these: topical administration; Gilbard and Dartt, patent pending; cited from earlier work.
A further experiment relates to lacrimal gland cells. The following applies: Dartt et al, Am. J. Physio. 247: G502, 1984; cited from earlier work.

Results on 4 substances are retold here after US4868154A, “Stimulation of tear secretion with melanocyte stimulating hormones” (Eye Research Institute of Retina Foundation, priority 1986, dated 1989).

Where no end group is shown, it is not given here.

As to “adrenocorticotropic hormone (SYSMEHFRWGKPVGKKRRPVKVYPNGAEDESAEAFPLEF; Corticotropin; UniProt P01189 138-176, looked up) [hormone cited from literature as stimulating protein secretion in vitro]”, in the experiment on tissue pieces in vitro, the protein secretion result was “stimulate protein secretion”.

Take “beta-melanocyte stimulating hormone [beta-MSH]”: in the experiment on rabbits with dry eyes, the “dose dependence of the decrease in tear film osmolality” value is “dose-dependent decrease in tear film osmolality” and the “tear film osmolality compared with buffer alone” value is reported as “lowers the tear film osmolality more effectively than buffer alone”.

With “gamma-melanocyte stimulating hormone [gamma-MSH]”, in the experiment on rabbits with dry eyes, the “dose dependence of the decrease in tear film osmolality” value is “dose-dependent decrease in tear film osmolality” and the “tear film osmolality compared with buffer alone” value is listed as “lowers the tear film osmolality more effectively than buffer alone”.

As to “vasoactive intestinal peptide (HSDAVFTDNYTRLRKQMAVKKYLNSILN; ends and bridges not checked; UniProt P01282 125-152, looked up) [peptide cited from prior work as stimulating lacrimal gland fluid secretion]”, in the experiment on lacrimal gland, the “lacrimal gland fluid secretion” value is on record as “stimulates lacrimal gland fluid secretion”. In addition, the “cyclic AMP levels in lacrimal gland cells” value with lacrimal gland cells was “increase cyclic AMP levels”.
